From US9340500B2, “Aromatic heterocyclic derivative having TRPV4-inhibiting activity” (SHIONOGI & CO., LTD., priority 2011, dated 2016)
Converted amounts (≈) assume the structure as drawn.

Legend:
[1] = biological target: human TRPV4 (Homo sapiens (Human), UniProt Q9HBA0); experiment: Test Example 1: measurement of TRPV4 inhibitory activity (Fluo 4-AM, FLIPR TETRA, 4α-PDD 1 μmol/L); assay type: cell-based; settings: hTRPV4/CHO cells, 4α-PDD 1 μmol/L
In short: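 Calcium influx evoked by 4α-PDD (final 1 μmol/L) in hTRPV4/CHO-K1 cells loaded with Fluo-4 AM (final 3 μmol/L), pH 7.4 HEPES-Hanks with probenecid; compounds added 5 min earlier. Inhibition relative to 20 μM Ruthenium Red gave IC50 (logistic), converted to Ki via agonist EC50.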

[2] = Solubility test; assay type: physicochemical; settings: artificial intestinal juice (phosphate buffer) with 1% DMSO, fassgf or other biorelevant, kinetic from dmso stock, artificial intestinal juice pH 6.8, 16 hours at 25° C.
In short: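 A DMSO stock was added to artificial intestinal juice at pH 6.8, giving 1% DMSO. The mixture stood 16 hours at 25° C. and was vacuum-filtered. Dissolved compound in the filtrate was quantified by HPLC or LC/MS/MS using absolute calibration.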

human TRPV4, sequence (Q9HBA0 whole entry): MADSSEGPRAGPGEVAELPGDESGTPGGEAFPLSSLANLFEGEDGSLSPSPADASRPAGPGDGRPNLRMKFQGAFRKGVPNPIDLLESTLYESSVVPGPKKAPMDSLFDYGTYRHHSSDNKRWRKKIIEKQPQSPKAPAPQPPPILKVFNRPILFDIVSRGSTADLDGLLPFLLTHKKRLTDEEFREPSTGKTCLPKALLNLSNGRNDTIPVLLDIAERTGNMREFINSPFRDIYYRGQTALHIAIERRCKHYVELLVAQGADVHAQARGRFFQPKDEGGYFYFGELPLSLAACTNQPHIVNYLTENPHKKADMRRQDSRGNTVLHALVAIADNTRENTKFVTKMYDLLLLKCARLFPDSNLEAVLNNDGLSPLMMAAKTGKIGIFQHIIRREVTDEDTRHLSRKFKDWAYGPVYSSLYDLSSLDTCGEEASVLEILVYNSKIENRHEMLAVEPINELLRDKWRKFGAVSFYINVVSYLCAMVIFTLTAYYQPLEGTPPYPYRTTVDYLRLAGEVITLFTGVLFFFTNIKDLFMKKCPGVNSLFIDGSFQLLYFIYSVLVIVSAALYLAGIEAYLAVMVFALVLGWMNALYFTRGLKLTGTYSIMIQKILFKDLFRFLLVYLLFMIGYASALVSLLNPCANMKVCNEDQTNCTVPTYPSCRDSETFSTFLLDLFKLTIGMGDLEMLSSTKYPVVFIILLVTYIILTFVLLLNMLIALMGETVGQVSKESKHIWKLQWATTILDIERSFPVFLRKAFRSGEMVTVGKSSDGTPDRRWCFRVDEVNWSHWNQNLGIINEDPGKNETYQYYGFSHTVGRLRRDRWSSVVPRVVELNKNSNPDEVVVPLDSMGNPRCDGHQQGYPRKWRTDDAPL

IC50 [1] [nM] | solubility at 16 h [2] [µM] | Compound
330 | > 50 | Cc1c(C(=O)Nc2cccc(C(F)(F)F)c2)cc(-c2ccccc2)n1CCCN(C)C [Compound I-018]
860 | 10.1 (≈ 4.84 µg/mL) | Cc1c(C(=O)Nc2cccc(C(F)(F)F)c2)cc(-c2ccccc2)n1CCCNS(C)(=O)=O [Compound I-026]

Compound | IC50 [1] [nM] | solubility at 16 h [2] [µM]
Cc1c(C(=O)Nc2cccc(C(F)(F)F)c2)ccn1CCCN1CCOCC1 [Compound I-007] | 8900 | > 50
